This is an account of results in patent US10844038B2, “1,2-dithiolane compounds useful in neuroprotection, autoimmune and cancer diseases and conditions” (SABILA BIOSCIENCES LLC, priority 2016, dated 2020).

Experiment [1] deals with Bruton Tyrosine Kinase (BTK) (Homo sapiens (Human), UniProt Q06187). The experiment is described as follows: Rabbit reticulocyte lysate assay (KinaseSeeker competition binding). The note with it: read-out: IC50 Activity Levels Against Bruton Tyrosine Kinase: BTK. The protocol: (§1) 1. Rabbit Reticulocyte Lysate Assay Design:
(§2) KinaseSeeker is a homogeneous competition binding assay where the displacement of an active site dependent probe by an inhibitor is measured by a change in luminescence signal. Luminescence readout translates into a highly sensitive and robust assay with low background and minimal interference from test compounds.
(§3) 10 mM stock solutions of test compounds were serially diluted in DMSO to make assay stocks. Prior to initiating IC50 determinations, the test compounds were evaluated for false positive against split-luciferase.
(§4) Each test compound was screened in duplicate against target kinase at 7 different concentrations. For kinase assays, Cfluc-kinase was translated along with Fos-Nfluc using a cell-free system (rabbit reticulocyte lysate) at 30° C. for 90 min. 24 uL aliquot of this lysate containing either 1 uL of DMSO (for no-inhibitor control) or compound solution in DMSO was incubated for 30 minutes at room temperature followed by 1 hour in presence of a kinase specific probe. 80 uL of luciferin assay reagent was added to each solution and luminescence was immediately measured on a luminometer.
(§5) The % Inhibition and % Activity Remaining was calculated using the following equation: % Inhibition=[(ALUControl−ALUSample)/ALUControl]×100 % Activity Remaining=100−% Inhibition
(§6) The % Activity was plotted against compound concentration and the IC50 was determined for each compound using a 7-point curve (Jester, B. W.; et. al. J. Am. Chem. Soc. 2010, 132, 11727-11735. Jester, B. W., et. al. J. Med. Chem. 2012, 55, 1526-1537). Biological activity of representative compounds of the disclosure are described in Table 5.

For the next experiment, the target named is BRAF (Homo sapiens (Human), UniProt P15056). The experiment is described as follows: KINOMEscan competition binding assay (Kd). The note with it: read-out: Kd Values Against MAPK Pathway Kinases: BRAF. The protocol: (§7) KINOMEscan™ is based on a competition binding assay that quantitatively measures the ability of a test compound of the invention to compete with an immobilized, active-site directed ligand. The Kinase assay is performed by combining three components: DNA-tagged kinase; immobilized ligand; and a test compound. The ability of the test compound to compete with the immobilized ligand is measured via quantitative PCR of the DNA tag.
(§8) For most assays, kinase-tagged T7 phage strains were prepared in an E. coli host derived from the BL21 strain. E. coli were grown to log-phase and infected with T7 phage and incubated with shaking at 32° C. until lysis. The lysates were centrifuged and filtered to remove cell debris. The remaining kinases were produced in HEK-293 cells and subsequently tagged with DNA for qPCR detection. Streptavidin-coated magnetic beads were treated with biotinylated small molecule ligands for 30 minutes at room temperature to generate affinity resins for kinase assays. The liganded beads were blocked with excess biotin and washed with blocking buffer (SeaBlock (Pierce), 1% BSA, 0.05% Tween 20, 1 mM DTT) to remove unbound ligand and to reduce nonspecific binding. […] All reactions were performed in polystyrene 96-well plates in a final volume of 0.135 ml. […] The kinase concentration in the eluates was measured by qPCR.

The next experiment addresses BTK (Homo sapiens (Human), UniProt Q06187). The experiment is described as follows: KINOMEscan competition binding assay (Kd). The following applies: read-out: Kd Values Against Representative TEC Family Kinases: BTK. The protocol:
as §7, §8

A further experiment addresses mTor/FRAP1 (Homo sapiens (Human), UniProt P42345). The experiment is described as follows: Radioisotope filter binding assay. The following applies: read-out: IC50 Activity Levels Against Various PI3K and mTor Kinases: mTor/FRAP1. It counts as biochemical. How it is done:
(§9) 3. Radioisotope Filter Binding Assay:
(§10) In this assay format, it directly detects the true product without the use of modified substrates or coupling enzymes (Uitdehaag, J. C., et al. Br. J. Pharmacol. 2012, 166, 858-876; Hastie, C. J., et al. Nat. Protoc. 2006, 1, 968-971) according to equation 1. Substrate+[γ−^33P]−ATP→^33P-Substrate+ADP eq 1
(§11) The protocol calls for test compound of the invention to be incubated with kinase, substrate, cofactors, and radio-isotope-labeled ATP (^33P-gamma-ATP). The reaction mixtures are then spotted onto filter papers which bind the radioisotope labeled catalytic product. Unreacted phosphate is removed via washing. The reagents used include base reaction buffer; 20 mM Hepes (pH 7.5), 10 mM MgCl2, 1 mM EGTA, 0.02% Brij35, 0.02 mg/ml BSA, 0.1 mM Na3VO4, 2 mM DTT, 1% DMSO. The reaction procedure include the following steps: (1) prepare indicated substrate in freshly prepared base reaction buffer, (2) deliver any required cofactors to the substrate solution above, (3) deliver indicated kinase into the substrate solution and gently mix, (4) deliver compounds in DMSO into the kinase reaction mixture by Acoustic technology (Echo550; nanoliter range), incubate for 20 minutes at room temperature, (5) deliver ^33P-ATP (specific activity 10 μCi/μL) into the reaction mixture to initiate the reaction, (6) incubate kinase reaction for 2 hours at room temperature, (7) reactions are spotted onto P81 ion exchange paper, (8) detect kinase activity by filter-binding method.

A further experiment concerns the target MEK5 (Homo sapiens (Human), UniProt Q13163). The experiment is described as follows: KINOMEscan competition binding assay (Kd). The note with it: Table 9, read-out: Kd Values Against Representative MEK5 Kinase: MEK5. The protocol: as §7, §8
A further experiment addresses mTOR (Homo sapiens (Human), UniProt P42345). Nature of the experiment: KINOMEscan competition binding assay (Kd). The note with it: read-out: Kd Values Against mTOR Kinase: mTOR. How it is done:
as §7, §8

Experiment [2] has as its target T1, FYN (Homo sapiens (Human), UniProt P06241). The experiment is described as follows: Radioisotope filter binding assay. The following applies: read-out: IC50 Activity Levels Against SRC Family Kinases: FYN. It counts as biochemical. How it is done: as §9, §10, §11
Another experiment addresses CSK (Homo sapiens (Human), UniProt P41240). The experiment is described as follows: Rabbit reticulocyte lysate assay (KinaseSeeker competition binding). The note with it: read-out: % Inhibition Against SRC Family Kinases: CSK. The protocol: as §1, §2, §3, §4, §5, §6
Another experiment deals with FGR (Homo sapiens (Human), UniProt P09769). The description is as above. The note with it: at 1 μM, read-out: % Inhibition Against SRC Family Kinases: FGR. How it is done:
as §1, §2, §3, §4, §5, §6

For experiment [3], the target named is T1, FYN. Described as above. The following applies: read-out: % Inhibition Against SRC Family Kinases: FYN. The protocol:
as §1, §2, §3, §4, §5, §6

Another experiment concerns the target HCK (Homo sapiens (Human), UniProt P08631). The description is as above. The following applies: at 1 μM, read-out: % Inhibition Against SRC Family Kinases: HCK. How it is done: as §1, §2, §3, §4, §5, §6
The target of another experiment is LYN (Homo sapiens (Human), UniProt P07948). The description is as above. The following applies: read-out: % Inhibition Against SRC Family Kinases: LYN. How it is done:
as §1, §2, §3, §4, §5, §6

The target in a further experiment is SRC (Homo sapiens (Human), UniProt P12931). The experiment is described as above. The following applies: at 1 μM, read-out: % Inhibition Against SRC Family Kinases: SRC. The protocol: as §1, §2, §3, §4, §5, §6
Another experiment addresses YES1 (Homo sapiens (Human), UniProt P07947). The experiment is described as above. The following applies: at 1 μM, read-out: % Inhibition Against SRC Family Kinases: YES1. How it is done: as §1, §2, §3, §4, §5, §6

pIC50, pKd: −log10 of the molar value. Bounds are passed on as bounds.

Sequence of BTK (Q06187 whole entry): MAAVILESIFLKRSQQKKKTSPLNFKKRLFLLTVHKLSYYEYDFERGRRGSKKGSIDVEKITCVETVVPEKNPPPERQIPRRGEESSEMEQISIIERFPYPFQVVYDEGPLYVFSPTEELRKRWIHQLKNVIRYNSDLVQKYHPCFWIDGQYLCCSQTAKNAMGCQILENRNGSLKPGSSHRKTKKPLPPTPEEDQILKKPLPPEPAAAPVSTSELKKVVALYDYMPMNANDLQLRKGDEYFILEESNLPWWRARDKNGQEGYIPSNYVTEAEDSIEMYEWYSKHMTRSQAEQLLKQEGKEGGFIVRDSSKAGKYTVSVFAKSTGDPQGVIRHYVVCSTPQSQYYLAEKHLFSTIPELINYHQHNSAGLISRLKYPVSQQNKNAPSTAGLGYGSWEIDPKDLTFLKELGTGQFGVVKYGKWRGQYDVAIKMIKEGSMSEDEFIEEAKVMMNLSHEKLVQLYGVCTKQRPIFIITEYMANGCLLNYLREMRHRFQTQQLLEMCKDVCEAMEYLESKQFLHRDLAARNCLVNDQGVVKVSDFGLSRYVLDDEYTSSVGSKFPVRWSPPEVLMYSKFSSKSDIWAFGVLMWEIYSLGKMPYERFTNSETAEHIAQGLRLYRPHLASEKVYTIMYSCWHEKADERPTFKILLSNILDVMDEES
T1 sequence (P06241 whole entry): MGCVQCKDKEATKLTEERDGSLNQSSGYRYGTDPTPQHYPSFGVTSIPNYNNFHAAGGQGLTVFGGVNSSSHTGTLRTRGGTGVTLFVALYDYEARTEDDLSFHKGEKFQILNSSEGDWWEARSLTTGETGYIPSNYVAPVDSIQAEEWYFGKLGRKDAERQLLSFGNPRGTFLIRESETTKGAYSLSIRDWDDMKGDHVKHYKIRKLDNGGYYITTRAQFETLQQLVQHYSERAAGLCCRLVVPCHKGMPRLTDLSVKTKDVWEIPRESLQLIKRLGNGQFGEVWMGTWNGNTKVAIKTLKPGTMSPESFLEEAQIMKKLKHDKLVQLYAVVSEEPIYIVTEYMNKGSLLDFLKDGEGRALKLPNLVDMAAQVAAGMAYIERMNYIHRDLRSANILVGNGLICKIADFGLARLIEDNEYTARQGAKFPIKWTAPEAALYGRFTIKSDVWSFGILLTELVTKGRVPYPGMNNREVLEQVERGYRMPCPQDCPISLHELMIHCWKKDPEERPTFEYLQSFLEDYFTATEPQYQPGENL
Sequence of MEK5 (Q13163 whole entry): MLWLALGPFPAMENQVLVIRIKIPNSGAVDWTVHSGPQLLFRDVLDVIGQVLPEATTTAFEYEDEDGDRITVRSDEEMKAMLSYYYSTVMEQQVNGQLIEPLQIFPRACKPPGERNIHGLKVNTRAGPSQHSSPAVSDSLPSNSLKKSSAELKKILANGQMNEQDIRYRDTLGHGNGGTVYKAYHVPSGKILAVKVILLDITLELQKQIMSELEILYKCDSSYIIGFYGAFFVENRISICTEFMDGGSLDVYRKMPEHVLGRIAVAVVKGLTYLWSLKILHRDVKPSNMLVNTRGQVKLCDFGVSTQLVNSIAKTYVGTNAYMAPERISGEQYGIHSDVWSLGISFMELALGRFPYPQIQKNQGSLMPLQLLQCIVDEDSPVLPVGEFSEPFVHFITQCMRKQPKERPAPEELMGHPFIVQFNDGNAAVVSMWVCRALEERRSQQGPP
Sequence of Bruton Tyrosine Kinase (BTK) (Q06187 whole entry): as the sequence (Q06187 whole entry) above
Sequence of SRC (P12931 whole entry, looked up): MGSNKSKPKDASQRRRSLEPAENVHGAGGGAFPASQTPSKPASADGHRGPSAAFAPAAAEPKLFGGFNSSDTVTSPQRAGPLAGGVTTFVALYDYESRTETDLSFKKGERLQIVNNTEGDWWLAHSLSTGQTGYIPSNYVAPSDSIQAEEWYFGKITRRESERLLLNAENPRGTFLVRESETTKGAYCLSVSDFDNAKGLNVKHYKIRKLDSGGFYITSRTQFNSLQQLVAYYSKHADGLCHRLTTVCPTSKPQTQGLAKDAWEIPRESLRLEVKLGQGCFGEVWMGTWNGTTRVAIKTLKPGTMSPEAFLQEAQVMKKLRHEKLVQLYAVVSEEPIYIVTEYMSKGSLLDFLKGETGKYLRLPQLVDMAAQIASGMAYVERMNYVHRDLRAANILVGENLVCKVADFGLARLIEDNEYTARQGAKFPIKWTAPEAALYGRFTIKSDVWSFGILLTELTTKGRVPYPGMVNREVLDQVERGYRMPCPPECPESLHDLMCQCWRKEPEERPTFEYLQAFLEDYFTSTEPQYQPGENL
Sequence of LYN (P07948 whole entry): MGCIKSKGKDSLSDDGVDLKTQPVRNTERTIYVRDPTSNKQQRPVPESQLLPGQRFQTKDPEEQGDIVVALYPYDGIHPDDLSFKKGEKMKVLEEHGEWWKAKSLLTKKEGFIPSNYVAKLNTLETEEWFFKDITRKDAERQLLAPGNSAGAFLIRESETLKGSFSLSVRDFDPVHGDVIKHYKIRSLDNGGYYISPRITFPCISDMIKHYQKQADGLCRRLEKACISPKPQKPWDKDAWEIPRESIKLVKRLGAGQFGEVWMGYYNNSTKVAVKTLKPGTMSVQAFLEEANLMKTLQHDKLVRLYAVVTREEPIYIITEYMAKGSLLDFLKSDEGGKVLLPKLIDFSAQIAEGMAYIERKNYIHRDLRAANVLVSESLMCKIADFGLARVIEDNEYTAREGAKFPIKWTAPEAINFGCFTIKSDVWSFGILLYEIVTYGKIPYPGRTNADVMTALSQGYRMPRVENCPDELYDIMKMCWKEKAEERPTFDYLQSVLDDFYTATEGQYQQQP
Sequence of HCK (P08631 whole entry): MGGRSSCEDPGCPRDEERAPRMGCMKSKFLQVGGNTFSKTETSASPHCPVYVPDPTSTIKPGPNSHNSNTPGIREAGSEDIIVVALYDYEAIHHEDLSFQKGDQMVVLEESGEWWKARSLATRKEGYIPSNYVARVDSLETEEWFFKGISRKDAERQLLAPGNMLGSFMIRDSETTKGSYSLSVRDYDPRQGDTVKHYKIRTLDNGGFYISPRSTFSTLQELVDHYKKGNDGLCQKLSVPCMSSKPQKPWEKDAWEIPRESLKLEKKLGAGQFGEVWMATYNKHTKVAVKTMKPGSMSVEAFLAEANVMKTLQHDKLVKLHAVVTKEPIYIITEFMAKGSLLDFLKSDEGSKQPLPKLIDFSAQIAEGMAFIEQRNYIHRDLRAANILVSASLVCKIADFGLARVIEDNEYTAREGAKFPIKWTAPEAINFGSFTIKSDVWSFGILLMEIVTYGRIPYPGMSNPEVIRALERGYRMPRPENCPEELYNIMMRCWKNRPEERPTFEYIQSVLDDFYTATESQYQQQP
Sequence of FGR (P09769 whole entry): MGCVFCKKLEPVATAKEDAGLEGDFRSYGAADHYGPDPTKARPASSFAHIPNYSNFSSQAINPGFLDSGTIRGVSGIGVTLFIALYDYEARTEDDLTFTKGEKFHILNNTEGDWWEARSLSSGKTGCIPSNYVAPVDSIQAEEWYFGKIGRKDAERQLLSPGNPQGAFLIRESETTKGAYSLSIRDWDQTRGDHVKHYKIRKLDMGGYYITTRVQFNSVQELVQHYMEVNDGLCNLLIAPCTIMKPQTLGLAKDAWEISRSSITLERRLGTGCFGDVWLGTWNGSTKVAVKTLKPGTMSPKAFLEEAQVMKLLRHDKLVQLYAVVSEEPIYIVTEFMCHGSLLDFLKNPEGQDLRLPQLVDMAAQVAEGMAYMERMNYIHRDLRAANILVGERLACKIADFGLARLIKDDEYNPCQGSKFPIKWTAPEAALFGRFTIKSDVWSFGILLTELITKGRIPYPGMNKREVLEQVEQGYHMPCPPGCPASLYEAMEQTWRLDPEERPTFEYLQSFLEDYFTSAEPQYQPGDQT
Sequence of CSK (P41240 whole entry): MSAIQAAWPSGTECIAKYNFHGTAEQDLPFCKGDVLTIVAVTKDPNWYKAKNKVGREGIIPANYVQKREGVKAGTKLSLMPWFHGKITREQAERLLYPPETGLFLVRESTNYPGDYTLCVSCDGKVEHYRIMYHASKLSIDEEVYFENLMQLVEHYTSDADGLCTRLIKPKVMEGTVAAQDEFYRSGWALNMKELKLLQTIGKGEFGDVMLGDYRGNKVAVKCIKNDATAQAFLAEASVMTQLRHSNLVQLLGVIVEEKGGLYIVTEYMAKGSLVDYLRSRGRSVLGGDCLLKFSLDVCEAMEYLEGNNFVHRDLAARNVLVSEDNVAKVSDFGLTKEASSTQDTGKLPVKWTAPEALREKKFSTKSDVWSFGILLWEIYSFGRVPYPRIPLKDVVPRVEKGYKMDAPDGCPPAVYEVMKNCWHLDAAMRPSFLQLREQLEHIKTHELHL
Sequence of BRAF (P15056 whole entry): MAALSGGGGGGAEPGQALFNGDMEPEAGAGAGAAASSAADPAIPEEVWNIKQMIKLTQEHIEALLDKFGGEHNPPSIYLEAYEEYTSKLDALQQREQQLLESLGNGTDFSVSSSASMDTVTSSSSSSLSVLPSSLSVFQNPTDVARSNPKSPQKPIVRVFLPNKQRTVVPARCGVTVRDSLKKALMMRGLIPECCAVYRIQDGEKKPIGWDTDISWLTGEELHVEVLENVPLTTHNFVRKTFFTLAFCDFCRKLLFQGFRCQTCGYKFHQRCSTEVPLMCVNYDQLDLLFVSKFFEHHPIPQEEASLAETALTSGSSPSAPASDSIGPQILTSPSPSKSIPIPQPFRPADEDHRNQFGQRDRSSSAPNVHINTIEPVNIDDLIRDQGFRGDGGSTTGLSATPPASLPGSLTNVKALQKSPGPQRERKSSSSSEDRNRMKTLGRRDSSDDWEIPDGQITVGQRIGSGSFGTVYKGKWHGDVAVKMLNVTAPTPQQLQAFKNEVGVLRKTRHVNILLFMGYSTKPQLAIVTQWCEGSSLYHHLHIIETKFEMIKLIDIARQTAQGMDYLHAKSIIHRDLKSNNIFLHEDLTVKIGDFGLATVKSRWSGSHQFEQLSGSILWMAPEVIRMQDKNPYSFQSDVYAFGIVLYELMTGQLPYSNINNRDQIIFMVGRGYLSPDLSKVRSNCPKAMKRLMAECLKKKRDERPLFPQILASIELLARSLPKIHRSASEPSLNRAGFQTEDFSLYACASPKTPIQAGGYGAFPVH

On to `Nc1ncnc2c1c(-c1ccc(Oc3ccccc3)cc1)nn2C[C@@H]1SSC[C@H]1O` (relative stereo) [Example 42, trans 3-((4-Amino-3-(4-phenoxyphenyl)-1H-pyrazolo[3,4-d]pyrimidin-1-yl)methyl)-1,2-dithiolan-4-ol], for which the pIC50 in experiment [1] was 6.00 to 7.00. For the same molecule, the pKd (as a rule, the negative decadic logarithm of the Kd, by convention in mol/L) is 5.00 to 6.00 on BRAF and 7.00 to 8.30 at BTK.
As for `Nc1ncnc2c1c(C#Cc1ccccc1)nn2C[C@@H]1SSC[C@H]1O` (relative stereo) [Example 52, trans 3-(4-Amino-3-(phenylethynyl)-1H-pyrazolo[3,4-d]pyrimidin-1-yl)methyl-1,2-dithiolan-4-ol], the pIC50 at mTor/FRAP1 is 5.00 to 6.00.
With `CO[C@@H]1CSS[C@H]1Cn1nc(-c2ccc(Oc3ccccc3)cc2)c2c(N)ncnc21` (relative stereo) [Example 37, trans 1-((4-Methoxy-1,2-dithiolan-3-yl)methyl)-3-(4-phenoxyphenyl)-1H-pyrazolo[3,4-d]pyrimidin-4-amine], the pKd on BTK is 7.00 to 8.30; on MEK5, more than 8.30; at mTOR, 5.00 to 6.00. Besides, on FYN [2], the pIC50 was 7.00 to 8.30.
For the molecule `Nc1ncnc2c1c(-c1ccc(Oc3ccccc3)cc1)nn2C[C@@H]1SSC[C@@H]1OCc1ccccc1` (relative stereo) [Example 40, cis 1-((4-(Benzyloxy)-1,2-dithiolan-3-yl)methyl)-3-(4-phenoxyphenyl)-1H-pyrazolo[3,4-d]pyrimidin-4-amine], the pKd at BTK is 6.00 to 7.00; on MEK5, 7.00 to 8.30. For the same molecule, on FYN [2], the pIC50 was 5.00 to 6.00.
For `Nc1ncnc2c1c(-c1ccc(Oc3ccccc3F)cc1)nn2CC1SSCC1O` (stereo not drawn) [Example 63, trans 3-((4-Amino-3-(4-(2-fluorophenoxyphenyl)-1H-pyrazolo[3,4-d]pyrimidin-1-yl)methyl)-1,2-dithiolan-4-ol], the pIC50 at FYN [2] is 7.00 to 8.30.
On the same count and under the same terms, the result for `Nc1ncnc2c1c(-c1ccc(Oc3ccccc3F)cc1)nn2CC1SSCC1OC(=O)c1ccccc1` (stereo not drawn) [Example 62, trans 3-((4-Amino-3-(4-(2-fluorophenoxyphenyl)-1H-pyrazolo[3,4-d]pyrimidin-1-yl)methyl)-1,2-dithiolan-4-yl benzoate] reads 7.00 to 8.30.
Take `Nc1ncnc2c1c(-c1ccccc1)nn2C[C@@H]1SSC[C@H]1O` (relative stereo) [Example 28, trans 3-((4-Amino-3-phenyl-1H-pyrazolo[3,4-d]pyrimidin-1-yl)methyl)-1,2-dithiolan-4-ol]: at MEK5, the pKd is 7.00 to 8.30.
In the case of `Nc1ncnc2c1c(C#Cc1ccccc1)nn2CC1SSCC1OC(=O)c1ccccc1` (stereo not drawn) [Example 51, trans 3-((4-Amino-3-(phenylethynyl)-1H-pyrazolo[3,4-d]pyrimidin-1-yl)methyl-1,2-dithiolan-4-yl benzoate], the pIC50 at mTor/FRAP1 is 5.00 to 6.00.
On to `Nc1ncnc2c1c(-c1ccc(Cl)cc1)nn2C[C@@H]1SSC[C@H]1O` (relative stereo) [Example 30, trans 3-((4-Amino-3-(4-chlorophenyl)-1H-pyrazolo[3,4-d]pyrimidin-1-yl)methyl)-1,2-dithiolan-4-ol], for which the pKd on MEK5 is more than 8.30.
On to `Nc1ncnc2c1c(-c1ccc(Oc3ccccc3)cc1)nn2C[C@@H]1SSC[C@H]1OCc1ccccc1` (relative stereo) [Example 39, trans 1-((4-(Benzyloxy)-1,2-dithiolan-3-yl)methyl)-3-(4-phenoxyphenyl)-1H-pyrazolo[3,4-d]pyrimidin-4-amine], for which the values for the pKd at BTK and on MEK5 were 5.00 to 6.00 and 7.00 to 8.30, respectively.
As for `Nc1ncnc2c1c(-c1ccc(Oc3ccccc3)cc1)nn2C[C@@H]1SSC[C@@H]1O` (relative stereo) [Example 45, cis 3-((4-Amino-3-(4-phenoxyphenyl)-1H-pyrazolo[3,4-d]pyrimidin-1-yl)methyl)-1,2-dithiolan-4-ol], at BTK, the pKd was 7.00 to 8.30.
Regarding `CO[C@H]1CSS[C@H]1Cn1nc(-c2ccc(Oc3ccccc3)cc2)c2c(N)ncnc21` (relative stereo) [Example 38, cis 1-((4-Methoxy-1,2-dithiolan-3-yl)methyl)-3-(4-phenoxyphenyl)-1H-pyrazolo[3,4-d]pyrimidin-4-amine], the figures for the pKd on BTK and at MEK5 were 7.00 to 8.30 and more than 8.30, respectively.
As for `Nc1ncnc2c1c(-c1ccc(Oc3ccccc3)cc1)nn2C[C@@H]1SSC[C@H]1O` [Example 43 A., (3S,4R)-3-((4-Amino-3-(4-phenoxyphenyl)-1H-pyrazolo[3,4-d]pyrimidin-1-yl)methyl)-1,2-dithiolan-4-ol], the inhibition (usually the share of the control response that was lost under treatment) at 1 µM was determined as 50% on CSK; 84% at FGR; 33% on FYN [3]; 73% at HCK; 33% at LYN; 49% at SRC. In addition, the inhibition at 1 µM on YES1 was determined as 90%.
Take `COc1ccc(-c2nn(CC3SSCC3O)c3ncnc(N)c23)cc1` (stereo not drawn) [36 B.]: the figures for the pKd at MEK5 and on mTOR were 7.00 to 8.30 and 6.00 to 7.00, respectively.
